The structures appear in SMILES notation. ≈ marks a conversion by molar mass, not a printed value. Bounds are passed on as bounds.

Format in all cases: cell-based
Test [1] deals with K. pneumoniae MP-546. Description: MIC determination by CLSI broth dilution, K. pneumoniae MP-546. The following applies: Klebsiella pneumoniae, MP546, CLSI broth dilution; strain MP-546. In general terms: Dilution methods test growth across graded concentrations, often in twofold steps.
The test system of test [2] is P. aeruginosa MP-3. Kind of test: MIC determination by CLSI broth dilution, P. aeruginosa MP-3. As to conditions: Pseudomonas aeruginosa, MP3, strain MP-3.
The test system of test [3] is S. aureus MP-12. Kind of test: microbe, parasite or virus in culture. As to conditions: Staphylococcus aureus, MP12, read-out: MIC S. aureus MP-12.
Test [4] relates to E. coli MP-4. Kind of test: MIC determination by CLSI broth dilution, E. coli MP-4. As to conditions: Escherichia coli, MP4, CLSI broth dilution; strain MP-4.
The test system of test [5] is A. baumannii MP-15. Description: MIC determination by CLSI broth dilution, A. baumannii MP-15. The following applies: Acinetobacter baumannii, MP15, strain MP-15, read-out: MIC A. baumanii MP-15.

With `CO[C@]1(C)C[C@@H](C)CN(C)[C@@H](C(=O)N2CCN(C(C)C)CC2)[C@H](C)OC(=O)C(C)(C)C(=O)[C@H](C)[C@H]1O[C@@H]1O[C@H](C)C[C@H](N(C)C)[C@H]1O` [Compound 91, (2S,3R,6R,8R,9R,10R)-9-(((2S,3R,4S,6R)-4-(dimethylamino)-3-hydroxy-6-methyltetrahydro-2H-pyran-2-yl)oxy)-3-(4-isopropylpiperazine-1-carbonyl)-8-methoxy-2,4,6,8,10,12,12-heptamethyl-1-oxa-4-azacyclotridecane-11,13-dione], the MIC in test [1], in test [2], in test [3], in test [4] and in test [5] was above 32 mg/L throughout.

For the compound `CO[C@]1(C)C[C@@H](C)CN[C@H](CN)COC(=O)[C@H](C)C(=O)[C@H](C)[C@H]1O[C@@H]1OC(C)CC(N(C)C)C1O` (stereo partly shown) [Compound 221], the MIC in test [1] and in test [3] was above 32 mg/L throughout.

Turning to `CNC[C@H]1COC(=O)C(C)(C)C(=O)[C@H](C)[C@@H](O[C@@H]2O[C@H](C)C[C@H](N(C)C)[C@H]2O)[C@](C)(OC)C[C@@H](C)CN1C` [Compound 9, (3S,6R,8R,9R,10R)-9-(((2S,3R,4S,6R)-4-(Dimethylamino)-3-hydroxy-6-methyltetrahydro-2H-pyran-2-yl)oxy)-8-methoxy-4,6,8,10,12,12-hexamethyl-3-((methylamino)methyl)-1-oxa-4-azacyclotridecane-11,13-dione], the MIC is 4 to 32 mg/L (≈ 7.36 to 58.9 µM) in test [1]; above 32 mg/L in test [2]; above 32 mg/L in test [3]; 4 to 32 mg/L (≈ 7.36 to 58.9 µM) in test [4]; above 32 mg/L in test [5].

Consider `CO[C@]1(C)C[C@@H](C)CN(C)[C@H](CC2CCN(CC(C)(C)C)CC2)[C@@H](C)OC(=O)C(C)(C)C(=O)[C@H](C)[C@H]1O[C@@H]1O[C@H](C)C[C@H](N(C)C)[C@H]1O` [Compound 39], for which the MIC in test [1] was 4 to 32 mg/L (≈ 5.87 to 46.9 µM); in test [2], above 32 mg/L; in test [3], above 32 mg/L; in test [4] it was below 4 mg/L; in test [5] it was above 32 mg/L.

On to `CCCN1CCC(C[C@H]2COC(=O)C(C)(C)C(=O)[C@H](C)[C@@H](O[C@@H]3O[C@H](C)C[C@H](N(C)C)[C@H]3O)[C@](C)(OC)C[C@@H](C)CN2C)CC1` [Compound 41], for which the MIC was 4 to 32 mg/L (≈ 6.25 to 50 µM) in test [1]; above 32 mg/L in test [2]; above 32 mg/L in test [3]; 4 to 32 mg/L (≈ 6.25 to 50 µM) in test [4]; above 32 mg/L in test [5].

Regarding `CO[C@]1(C)C[C@@H](C)CN(C)[C@@H](CN2CCN(S(C)(=O)=O)CC2)[C@H](C)OC(=O)C(C)(C)C(=O)[C@H](C)[C@H]1O[C@@H]1O[C@H](C)C[C@H](N(C)C)[C@H]1O` [Compound 80, (2S,3S,6R,8R,9R,10R)-9-(((2S,3R,4S,6R)-4-(dimethylamino)-3-hydroxy-6-methyltetrahydro-2H-pyran-2-yl)oxy)-8-methoxy-2,4,6,8,10,12,12-heptamethyl-3-((4-(methylsulfonyl)piperazin-1-yl)methyl)-1-oxa-4-azacyclotridecane-11,13-dione], the MIC is above 32 mg/L in test [1]; above 32 mg/L in test [2]; 4 to 32 mg/L (≈ 5.79 to 46.3 µM) in test [3]; above 32 mg/L in test [4]; above 32 mg/L in test [5].

As to `CO[C@]1(C)C[C@@H](C)CN(C)[C@@H](C(=O)N2CCN(C)CC2)[C@H](C)OC(=O)C(C)(C)C(=O)[C@H](C)[C@H]1O[C@@H]1O[C@H](C)C[C@H](N(C)C)[C@H]1O` [Compound 97, (2S,3R,6R,8R,9R,10R)-9-(((2S,3R,4S,6R)-4-(dimethylamino)-3-hydroxy-6-methyltetrahydro-2H-pyran-2-yl)oxy)-8-methoxy-2,4,6,8,10,12,12-heptamethyl-3-(4-methylpiperazine-1-carbonyl)-1-oxa-4-azacyclotridecane-11,13-dione], the MIC in test [1], in test [2], in test [3], in test [4] and in test [5] was above 32 mg/L in each case.

For the compound `CO[C@]1(C)C[C@@H](C)CN[C@@H](Cc2ccccc2)COC(=O)[C@H](C)C(=O)[C@H](C)[C@H]1O[C@@H]1OC(C)CC(N(C)C)C1O` (stereo partly shown) [Compound 208], the MIC in test [2] is above 32 mg/L; in test [3] it was 4 to 32 mg/L (≈ 7.11 to 56.9 µM); in test [4], above 32 mg/L; in test [5], above 32 mg/L.

For `CO[C@]1(C)C[C@@H](C)CNC(CO)(CO)COC(=O)[C@H](C)C(=O)[C@H](C)[C@H]1O[C@@H]1OC(C)CC(N(C)C)C1O` (stereo partly shown) [Compound 212], the MIC in test [2], in test [3], in test [4] and in test [5] was above 32 mg/L throughout.

For the compound `CO[C@]1(C)C[C@@H](C)CN[C@H](C)COC(=O)[C@H](C)C(=O)[C@H](C)[C@H]1O[C@@H]1OC(C)CC(N(C)C)C1O` (stereo partly shown) [Compound 207], the MIC in test [2], in test [3], in test [4] and in test [5] was above 32 mg/L in each case.

As to `CO[C@]1(C)C[C@@H](C)CN[C@@H](Cc2ccc(O)cc2)COC(=O)[C@H](C)C(=O)[C@H](C)[C@H]1O[C@@H]1OC(C)CC(N(C)C)C1O` (stereo partly shown) [Compound 209], the MIC in test [2] was above 32 mg/L; in test [3], 4 to 32 mg/L (≈ 6.91 to 55.3 µM); in test [4], above 32 mg/L; in test [5], above 32 mg/L.

With `CC[C@H]1OC(=O)[C@H](C)C(=O)[C@H](C)[C@@H](O[C@@H]2OC(C)CC(N(C)C)C2O)[C@](C)(OC)C[C@@H](C)CN(C)[C@H]1C` (stereo partly shown) [Compound 211], the MIC in test [2], in test [3], in test [4] and in test [5] was above 32 mg/L throughout.

For `CO[C@]1(C)C[C@@H](C)CN[C@H](CC[S+](C)[O-])COC(=O)[C@H](C)C(=O)[C@H](C)[C@H]1O[C@@H]1OC(C)CC(N(C)C)C1O` (stereo partly shown) [Compound 203], the MIC in test [2], in test [3], in test [4] and in test [5] was above 32 mg/L throughout.

Regarding `C=C[C@@H]1COC(=O)[C@H](C)C(=O)[C@H](C)[C@@H](O[C@@H]2OC(C)CC(N(C)C)C2O)[C@](C)(OC)C[C@@H](C)CN1` (stereo partly shown) [Compound 213], the MIC in test [2], in test [3], in test [4] and in test [5] was above 32 mg/L throughout.

Consider `CO[C@]1(C)C[C@@H](C)CN[C@H](CNCCCCCCn2ccnn2)COC(=O)[C@H](C)C(=O)[C@H](C)[C@H]1O[C@@H]1O[C@H](C)C[C@H](N(C)C)[C@H]1O` [Compound 220], for which the MIC in test [2], in test [3], in test [4] and in test [5] was above 32 mg/L throughout.

Turning to `CO[C@]1(C)C[C@@H](C)CN[C@H](CNCc2ccc(F)cn2)COC(=O)[C@H](C)C(=O)[C@H](C)[C@H]1O[C@@H]1O[C@H](C)C[C@H](N(C)C)[C@H]1O` [Compound 217], the MIC in test [2], in test [3], in test [4] and in test [5] was above 32 mg/L in each case.

As to `CC[C@H]1OC(=O)[C@H](C)C(=O)[C@H](C)[C@@H](O[C@@H]2OC(C)CC(N(C)C)C2O)[C@](C)(OC)C[C@@H](C)CN[C@H]1C` (stereo partly shown) [Compound 210], the MIC in test [2], in test [3], in test [4] and in test [5] was above 32 mg/L throughout.

With `CO[C@]1(C)C[C@@H](C)CN[C@H](CO)COC(=O)[C@H](C)C(=O)[C@H](C)[C@H]1O[C@@H]1OC(C)CC(N(C)C)C1O` (stereo partly shown) [Compound 204], the MIC in test [2], in test [3], in test [4] and in test [5] was above 32 mg/L throughout.

Consider `CC[C@@H]1COC(=O)[C@H](C)C(=O)[C@H](C)[C@@H](OC2OC(C)CC(N(C)C)C2O)[C@](C)(OC)C[C@@H](C)CN1` (stereo partly shown) [Compound 215], for which the MIC in test [2], in test [3], in test [4] and in test [5] was above 32 mg/L each time.

Take `CO[C@]1(C)C[C@@H](C)CN[C@H](CCSC)COC(=O)[C@H](C)C(=O)[C@H](C)[C@H]1O[C@@H]1OC(C)CC(N(C)C)C1O` (stereo partly shown) [Compound 202]: the MIC in test [2], in test [3], in test [4] and in test [5] was above 32 mg/L each time.

Turning to `CO[C@]1(C)C[C@@H](C)CN[C@H](Cn2cc(-c3cccc(N)n3)nn2)COC(=O)[C@H](C)C(=O)[C@H](C)[C@H]1O[C@@H]1O[C@H](C)C[C@H](N(C)C)[C@H]1O` [Compound 219, (3R,6R,8R,9R,10R)-3-((4-(6-aminopyridin-2-yl)-1H-1,2,3-triazol-1-yl)methyl)-9-(((2S,3R,4S,6R)-4-(dimethylamino)-3-hydroxy-6-methyltetrahydro-2H-pyran-2-yl)oxy)-8-methoxy-6,8,10,12-tetramethyl-1-oxa-4-azacyclotridecane-11,13-dione], the MIC in test [2], in test [3], in test [4] and in test [5] was above 32 mg/L each time.

Turning to `CO[C@]1(C)C[C@@H](C)CN[C@@H](Cc2c[nH]cn2)COC(=O)[C@H](C)C(=O)[C@H](C)[C@H]1O[C@@H]1OC(C)CC(N(C)C)C1O` (stereo partly shown) [Compound 205], the MIC in test [2], in test [3], in test [4] and in test [5] was above 32 mg/L in each case.

On to `CO[C@]1(C)C[C@@H](C)CN[C@H](CNC2COC2)COC(=O)[C@H](C)C(=O)[C@H](C)[C@H]1O[C@@H]1O[C@H](C)C[C@H](N(C)C)[C@H]1O` [Compound 216], for which the MIC was above 32 mg/L in test [2], above 32 mg/L in test [3], 4 to 32 mg/L (≈ 7.17 to 57.4 µM) in test [4] and above 32 mg/L in test [5].

Regarding `CO[C@]1(C)C[C@@H](C)CN[C@@H](C)COC(=O)[C@H](C)C(=O)[C@H](C)[C@H]1O[C@@H]1OC(C)CC(N(C)C)C1O` (stereo partly shown) [Compound 206], the MIC in test [2] was above 32 mg/L; in test [3], above 32 mg/L; in test [4], 4 to 32 mg/L (≈ 8.22 to 65.8 µM); in test [5], above 32 mg/L.
